Data from ChEMBL document CHEMBL1201862, “PubChem BioAssay data set” (2004).
“And” between values parts separate entries of the source, which are not always exact repeats. Equal values may be shown once.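 Tested at 5 concentrations; 48 h exposure; 96-well plates; endpoints linearly interpolated, else capped at highest concentration. Abbreviation: GI50, concentration required for 50% inhibition of growth.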 The source made the active and inactive calls. No stated cut-off is given here; in the data, active = GI50 up to about 1.1 µM and inactive = higher.

Assays:
Test in all cases: NCI anticancer screen, dose series, 48 h
Hs-578T = tested on: Hs-578T
A549 = tested on: A549
HOP-62 = tested on: HOP-62
U-251 = tested on: U-251
ACHN = tested on: ACHN
Malme-3M = tested on: Malme-3M
MDA-MB-231 = tested on: MDA-MB-231
HCC 2998 = tested on: HCC 2998
SK-MEL-2 = tested on: SK-MEL-2
DU-145 = tested on: DU-145
MCF7 = tested on: MCF7
RXF 393 = tested on: RXF 393
EKVX = tested on: EKVX
SNB-19 = tested on: SNB-19
OVCAR-8 = tested on: OVCAR-8
NCI-H226 = tested on: NCI-H226
NCI-H23 = tested on: NCI-H23
TK-10 = tested on: TK-10
UO-31 = tested on: UO-31
MDA-N = tested on: MDA-N
UACC-257 = tested on: UACC-257
OVCAR-5 = tested on: OVCAR-5
SK-OV-3 = tested on: SK-OV-3
LOX IMVI = tested on: LOX IMVI
HT-29 = tested on: HT-29
SF-268 = tested on: SF-268
COLO 205 = tested on: COLO 205
SNB-75 = tested on: SNB-75
MOLT-4 = tested on: MOLT-4
NCI/ADR-RES = tested on: NCI/ADR-RES
CAKI-1 = tested on: CAKI-1
786-0 = tested on: 786-0
A498 = tested on: A498
SK-MEL-28 = tested on: SK-MEL-28
OVCAR-4 = tested on: OVCAR-4
M14 = tested on: M14
SK-MEL-5 = tested on: SK-MEL-5
SR = tested on: SR
SF-539 = tested on: SF-539
SW-620 = tested on: SW-620
UACC-62 = tested on: UACC-62
IGROV-1 = tested on: IGROV-1
KM12 = tested on: KM12
HCT-15 = tested on: HCT-15
PC-3 = tested on: PC-3
CCRF-CEM = tested on: CCRF-CEM
OVCAR-3 = tested on: OVCAR-3
RPMI-8226 = tested on: RPMI-8226
HCT-116 = tested on: HCT-116
SN12C = tested on: SN12C
K562 = tested on: K562
SF-295 = tested on: SF-295
MDA-MB-435 = tested on: MDA-MB-435

O=C1N/C(=N/N=C\C(O)C(O)C(O)CO)N/C1=C/c1ccccc1 (configuration not stated) was tested, and the GI50 (Hs-578T) was > 100 µM (inactive), the GI50 (A549) was > 100 µM (inactive) and the GI50 (HOP-62) was > 100 µM (inactive). For the same compound, the GI50 (U-251) was > 100 µM (inactive) and 52.5 µM (inactive), the GI50 (ACHN) was > 100 µM (inactive) and the GI50 (Malme-3M) was 82 µM (inactive). The GI50 (MDA-MB-231) was 60 µM (inactive), the GI50 (HCC 2998) was 51.6 µM (inactive) and the GI50 (SK-MEL-2) was > 100 µM (inactive). For the same compound, the GI50 (DU-145) was > 100 µM (inactive), the GI50 (MCF7) was 34.4 µM (inactive) and 32.6 µM (inactive) and the GI50 (RXF 393) was > 100 µM (inactive). The GI50 (EKVX) was > 100 µM (inactive) and 85.7 µM (inactive), the GI50 (SNB-19) was > 100 µM (inactive) and the GI50 (OVCAR-8) was 65 µM (inactive). For the same compound, the GI50 (NCI-H226) was > 100 µM (inactive), the GI50 (NCI-H23) was > 100 µM (inactive) and the GI50 (TK-10) was > 100 µM (inactive). The GI50 (UO-31) was > 100 µM (inactive), the GI50 (MDA-N) was 53 µM (inactive) and the GI50 (UACC-257) was > 100 µM (inactive). The GI50 (OVCAR-5) was > 100 µM (inactive), the GI50 (SK-OV-3) was > 100 µM (inactive) and the GI50 (LOX IMVI) was > 100 µM (inactive). For the same compound, the GI50 (HT-29) was 50.1 µM (inactive), the GI50 (SF-268) was > 100 µM (inactive) and 62.7 µM (inactive) and the GI50 (COLO 205) was > 100 µM (inactive). The GI50 (SNB-75) was > 100 µM (inactive), the GI50 (MOLT-4) was 24 µM (inactive) and 39.6 µM (inactive) and the GI50 (NCI/ADR-RES) was > 100 µM (inactive). For the same compound, the GI50 (CAKI-1) was > 100 µM (inactive) and the GI50 (786-0) was 64 µM (inactive).
In the case of COc1cc2oc(=O)cc(C)c2cc1OC, the GI50 (A498) is reported as 40.2 µM (inactive), the GI50 (SK-MEL-28) is reported as > 100 µM (inactive) and the GI50 (Hs-578T) is reported as > 100 µM (inactive). The GI50 (A549) was > 100 µM (inactive), the GI50 (HOP-62) was > 100 µM (inactive) and the GI50 (U-251) was > 100 µM (inactive). The GI50 (ACHN) was > 100 µM (inactive), the GI50 (Malme-3M) was > 100 µM (inactive) and the GI50 (MDA-MB-231) was > 100 µM (inactive). The GI50 (OVCAR-4) was > 100 µM (inactive), the GI50 (M14) was > 100 µM (inactive) and the GI50 (SK-MEL-5) was > 100 µM (inactive). For the same compound, the GI50 (SK-MEL-2) was > 100 µM (inactive), the GI50 (SR) was > 100 µM (inactive) and the GI50 (DU-145) was > 100 µM (inactive). The GI50 (SF-539) was > 100 µM (inactive), the GI50 (SW-620) was > 100 µM (inactive) and the GI50 (MCF7) was > 100 µM (inactive). The GI50 (EKVX) was > 100 µM (inactive), the GI50 (SNB-19) was > 100 µM (inactive) and the GI50 (OVCAR-8) was > 100 µM (inactive). The GI50 (NCI-H226) was > 100 µM (inactive), the GI50 (UACC-62) was > 100 µM (inactive) and the GI50 (NCI-H23) was > 100 µM (inactive). For the same compound, the GI50 (TK-10) was > 100 µM (inactive), the GI50 (IGROV-1) was > 100 µM (inactive) and the GI50 (UO-31) was 66.7 µM (inactive). The GI50 (KM12) was > 100 µM (inactive), the GI50 (MDA-N) was > 100 µM (inactive) and the GI50 (HCT-15) was over 100 µM. For the same compound, the GI50 (UACC-257) was > 100 µM (inactive), the GI50 (PC-3) was > 100 µM (inactive) and the GI50 (CCRF-CEM) was > 100 µM (inactive). For the same compound, the GI50 (OVCAR-5) was > 100 µM (inactive), the GI50 (SK-OV-3) was > 100 µM (inactive) and the GI50 (LOX IMVI) was > 100 µM (inactive). For the same compound, the GI50 (HT-29) was > 100 µM (inactive), the GI50 (OVCAR-3) was > 100 µM (inactive) and the GI50 (SF-268) was > 100 µM (inactive). For the same compound, the GI50 (COLO 205) was > 100 µM (inactive), the GI50 (SNB-75) was > 100 µM (inactive) and the GI50 (MOLT-4) was > 100 µM (inactive). For the same compound, the GI50 (RPMI-8226) was > 100 µM (inactive), the GI50 (NCI/ADR-RES) was > 100 µM (inactive) and the GI50 (HCT-116) was > 100 µM (inactive). For the same compound, the GI50 (SN12C) was > 100 µM (inactive), the GI50 (K562) was > 100 µM (inactive) and the GI50 (SF-295) was > 100 µM (inactive). For the same compound, the GI50 (MDA-MB-435) was > 100 µM (inactive) and the GI50 (786-0) was > 100 µM (inactive).
